From ChEMBL document CHEMBL4118081, “Design, synthesis, and biological evaluation of optimized phthalazine derivatives as hedgehog signaling pathway inhibitors” (Eur J Med Chem, 2017)
The source made the active and inactive calls. The calls are words filed in the database; no cut-off is given here.

What was measured:
Medulloblastoma cell [1] = assay: Antiproliferative activity against Ptch+/- and p53-/- mouse medulloblastoma cells after 36 hrs by Brdu incorporation assay; type: functional, cell-based
[2] = Inhibition of hedgehog signaling pathway in mouse NIH/3T3 Light2 cells by Gli-luciferase reporter gene assay; type: cell-based; settings: NIH3T3
[3] = Cmax in Sprague-Dawley rat at 10 mg/kg, po administered as single dose; type: ADME, organism-based; parameters: dose 10 mg/kg, route oral; settings: in vivo
[4] = Clearance in Sprague-Dawley rat at 2 mg/kg, iv administered as single dose; type: ADME, organism-based; settings: in vivo
Mus musculus = species: Mus musculus; assay: Potency index, ratio of vismodegib IC50 to compound IC50 for hedgehog signaling pathway in mouse NIH/3T3 Light2 cells; type: cell-based
[5] = AUC (0 to infinity) in Sprague-Dawley rat at 2 mg/kg, iv administered as single dose; type: ADME, organism-based; parameters: dose 2 mg/kg, time infinity, route intravenous; settings: in vivo
[6] = Tmax in Sprague-Dawley rat at 10 mg/kg, po administered as single dose; type: ADME, organism-based; settings: in vivo
[7] = Volume of distribution at steady state in Sprague-Dawley rat at 2 mg/kg, iv administered as single dose; type: ADME, organism-based; settings: in vivo, read-out: Vdss
[8] = Half life in Sprague-Dawley rat at 2 mg/kg, iv administered as single dose; type: ADME, organism-based; settings: in vivo
Medulloblastoma cell [9] = assay: Antitumor activity against Ptch+/- and p53-/- mouse medulloblastoma cells allografted in athymic nude mouse assessed as tumor growth inhibition at 100 mg/kg, po qd administered daily via gavage for 13 days; type: functional, organism-based
[10] = AUC (0 to infinity) in Sprague-Dawley rat at 10 mg/kg, po administered as single dose; type: ADME, organism-based; parameters: dose 10 mg/kg, time infinity, route oral; settings: in vivo
Medulloblastoma cell [11] = assay: Antitumor activity against Ptch+/- and p53-/- mouse medulloblastoma cells allografted in athymic nude mouse assessed as tumor growth inhibition at 50 mg/kg, po bid administered daily via gavage for 13 days; type: functional, organism-based
[12] = Oral bioavailability in Sprague-Dawley rat at 10 mg/kg administered as single dose; type: ADME, organism-based; settings: in vivo

Row | Compound | IC50 [2] [nM] | also measured
1 | Cc1ccc(-c2nnc(N3CC[C@@H](NC(=O)c4ccc(F)cc4C(F)(F)F)C3)c3ccccc23)cc1 | 1.16 | IC50 (Medulloblastoma cell [1]): 20.1 nM
2 | Cn1nccc1-c1nnc(N2CC(NC(=O)c3ccc(F)cc3C(F)(F)F)C2)c2ccccc12 | > 1000 | –
3 | Cn1nccc1-c1nnc(N2CC3(CN(C(=O)c4ccc(F)cc4C(F)(F)F)C3)C2)c2ccccc12 | 442 | –
4 | Cc1ccc(-c2nnc(N3CC[C@H](NC(=O)c4ccc(F)cc4C(F)(F)F)C3)c3ccccc23)cc1 | > 100 | –
5 | O=C(N[C@@H]1CCN(c2nnc(-c3ccc(CO)cc3)c3ccccc23)C1)c1ccc(F)cc1C(F)(F)F | 0.17 | Cmax [3]: 480 nM; clearance [4]: 74.7 mL/min/kg; Ratio IC50 (Mus musculus): 23; AUC(0-inf) [5]: 0.88 µM·h; Tmax [6]: 15 min; IC50 (Medulloblastoma cell [1]): 24.6 nM; Vd [7]: 1.47 L/kg; half-life [8]: 19.2 min; TGI (Medulloblastoma cell [9]): Active; AUC(0-inf) [10]: 0.33 µM·h; TGI (Medulloblastoma cell [11]): Active; bioavailability [12]: 7.4%
6 | O=C(N[C@H]1CCN(c2nnc(-c3ccc(CO)cc3)c3ccccc23)C1)c1ccc(F)cc1C(F)(F)F | > 100 | –
7 | O=C(NC1CCN(c2nnc(-c3ccccc3Cl)c3ccccc23)C1)c1ccc(F)cc1C(F)(F)F (racemic) | 6.51 | –
8 | Cn1nccc1Nc1nnc(N2CCC(NC(=O)c3ccc(F)cc3C(F)(F)F)C2)c2ccccc12 (racemic) | > 100 | –
9 | O=C(NC1CCN(c2nnc(-c3ccccc3)c3ccccc23)C1)c1ccc(F)cc1C(F)(F)F (racemic) | 3.43 | –
10 | Cc1ccc(-c2nnc(N3CCC(NC(=O)c4ccc(F)cc4C(F)(F)F)C3)c3ccccc23)cc1 (racemic) | 0.88 | –
11 | N#Cc1ccc(-c2nnc(N3CCC(NC(=O)c4ccc(F)cc4C(F)(F)F)C3)c3ccccc23)cc1 (racemic) | 14 | –
12 | Cn1nccc1-c1nnc(N2CCCC(NC(=O)c3ccc(F)cc3C(F)(F)F)C2)c2ccccc12 (racemic) | > 1000 | –
13 | Cn1cc(-c2nnc(N3CCC(NC(=O)c4ccc(F)cc4C(F)(F)F)C3)c3ccccc23)cn1 (racemic) | > 100 | –
14 | Cn1nccc1-c1nnc(N2CCC(NC(=O)c3ccc(F)cc3C(F)(F)F)C2)c2ccccc12 (racemic) | 4.75 | –
15 | O=C(NC1CCN(c2nnc(-c3ccncc3)c3ccccc23)C1)c1ccc(F)cc1C(F)(F)F (racemic) | 10.7 | –
16 | Cc1ccc(-c2nnc(N3CCC(N(C)C(=O)c4ccc(F)cc4C(F)(F)F)C3)c3ccccc23)cc1 (racemic) | 2.93 | –
17 | Cn1nccc1-c1nnc(NC2CCN(C(=O)c3ccc(F)cc3C(F)(F)F)C2)c2ccccc12 (racemic) | > 1000 | –
18 | CN(C(=O)c1ccc(F)cc1C(F)(F)F)C1CCCN(c2nnc(-c3ccnn3C)c3ccccc23)C1 (racemic) | > 1000 | –
19 | O=C(NC1CCN(c2nnc(-c3ccc(Cl)cc3)c3ccccc23)C1)c1ccc(F)cc1C(F)(F)F (racemic) | 10.9 | –
20 | O=C(NC1CCN(c2nnc(-c3ccc(CO)cc3)c3ccccc23)C1)c1ccc(F)cc1C(F)(F)F (racemic) | 0.95 | –
21 | O=C(NC1CCN(c2nnc(NCc3ccccc3)c3ccccc23)C1)c1ccc(F)cc1C(F)(F)F (racemic) | > 100 | –
22 | CN(C(=O)c1ccc(F)cc1C(F)(F)F)C1CCN(c2nnc(-c3ccc(CO)cc3)c3ccccc23)C1 (racemic) | 1.36 | –
23 | CC(=O)c1ccc(-c2nnc(N3CCC(NC(=O)c4ccc(F)cc4C(F)(F)F)C3)c3ccccc23)cc1 (racemic) | 8.6 | –
24 | CN(C(=O)c1ccc(F)cc1C(F)(F)F)C1CCN(c2nnc(-c3ccnn3C)c3ccccc23)CC1 [TALADEGIB] | 6.3 | IC50 (Medulloblastoma cell [1]): 43.5 nM; TGI (Medulloblastoma cell [11]): Active
25 | CS(=O)(=O)c1ccc(C(=O)Nc2ccc(Cl)c(-c3ccccn3)c2)c(Cl)c1 [VISMODEGIB] | 2.3 | IC50 (Medulloblastoma cell [1]): 30.4 nM
